Test results taken from patent publication US20050209147A1, “Peptide inhibitors of RhoA signaling” (The Board of Trustees of the Leland Stanford Junior …, priority 2004, published 2005).

Assays:
ζ PKC = test: Measurement of ζ PKC kinase activity; assay type: cell-based; settings: 150 nM Wortmannin or 30 μM LY294002, 30 min, lymphocytes
Procedure: Measurement of ζ PKC kinase activity. The assay was performed as previously described. Briefly, lymphocytes were stimulated under stirring with agonists at 37° C. Stimulation was stopped with lysis buffer containing 50 mM Tris-HCl, pH 7.5, 1% Triton X-100, 0.01% SDS, 150 mM NaCl, 50 mM NaF, 10 mM sodium pyrophosphate, 1 μM phenylarsine oxide, containing the Complete™ protease inhibitor cocktail from Roche. After 30 min. on ice, lysates were centrifuged at 16,000 g for 1 min. to remove cell debris. Rabbit polyclonal anti ζ PKC (1 μg) or control rabbit serum was added to equal amount of cell lysates, followed by immunoprecipitation with trisacryl protein A. Equal amounts of ζ PKC were immunoprecipitated as confirmed by Western blot analysis. After four washing, immunoprecipitates were subjected to the kinase reaction for 30 min. at 30° C. in 50 μl of kinase buffer containing 0.5 mM EGTA, 10 mM MgC2, 20 mM HEPES, pH 7.4, 50 μM ATP, 5 μCi [γ-^32P]ATP and 2 μg myelin basic protein (MBP) as a substrate. The reaction was stopped by addition of 5% TCA and the reaction mixture was filtered through phosphocellulose paper. After four rinses with 1% phosphoric acid radioactivity on the filter was determined at a scintillation counter.

[1] = target: T1, RhoA binding to Rhotekin-RBD (Homo sapiens, UniProt Q9BST9); test: Affinity-precipitation (pull-down) of GTP-Val14-RhoA with Rhotekin GST-RBD; settings: 20 μg of domain, anti-RhoA immunoblot
T1 sequence (Q9BST9 17-98 limits assumed): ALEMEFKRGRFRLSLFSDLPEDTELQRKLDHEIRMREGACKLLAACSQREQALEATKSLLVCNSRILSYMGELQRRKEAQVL
Procedure: (§1) Specificity of RhoA fusion domains and measurement of RhoA activation. The specificity of P1-RhoA fusion domains was evaluated by affinity-precipitation assay using the rho-binding domain (RBD) from Citron, Rhotekin and ROCK. Recombinant Val14-RhoA was loaded with 1 mM GTP at 37° C. for 90 min. 10 μg of Citron, Rhotekin or ROCK GST-RBD conjugated with glutathione beads were mixed with 5 μg of GTP-Val14-RhoA in […] of 50 mM Tris-HCl (pH 7.4), 5 mM MgCl2, 0.5 mM GTP, 2 mg/ml BSA (binding buffer). Binding was for 60 min. at 15° C. The beads were washed twice with binding buffer and subjected to SDS-polyacrylamide gel electrophoresis on a 12% gel. RhoA background binding to glutathione beads was negligible. In case of experiments in presence of P1-RhoA fusion domains, the domains were previously dissolved in binding buffer at 1 mg/ml.

[2] = test system: ζ PKC translocation to the plasma membrane; test: ζ PKC intracellular distribution (sucrose gradient, immunoblot); assay type: cell-based; settings: CCL21 30 seconds; for ζ PKC translocation to the plasma membrane induced by CCL21: lymphocytes, 30 min pretreatment
Procedure: ζ PKC intracellular distribution. The assay was performed as previously described. Briefly, lymphocytes were stimulated under stirring with agonists at 37° C. Stimulation was stopped by diluting the cells in a 10 times larger volume of ice-cold PBS. Cells, resuspended in 1 ml of ice-cold PBS containing 8% sucrose, containing the Complete™ protease inhibitor cocktail from Roche, were sonicated and the homogenates were centrifuged at 800×g/10 min to remove nuclei and unbroken cells. The postnuclear supernatant was loaded on discontinuous sucrose gradient (50% sucrose, 30% sucrose) and centrifuged for 120 min. at 100,000×g. The light membrane fraction (plasma membrane) was collected in the 30% layer. Following SDS-PAGE on 10% acrylamide, proteins were electroblotted on nitrocellulose filters, probed with rabbit polyclonal antibodies anti ζ PKC (Santa Cruz Biotechnology), followed by goat polyclonal anti-rabbit HRP conjugated (Sigma) and developed using ECL (Amersham).

[3] = test system: CCL21-induced LFA-1-dependent lymphocyte adhesion to ICAM-1; test: In vitro rapid adhesion assay on ICAM-1; assay type: cell-based, mouse; settings: 1 μM CCL21; for rapid adhesion induced by CCL21 on high density of ICAM-1: high density of ICAM-1 (˜5000 sites/μm^2); for rapid adhesion induced by CCL21 on low density of ICAM-1: low density of ICAM-1 (−500 sites/μm^2)
Procedure: In vitro rapid adhesion assay on ICAM-1. ICAM-1 was purified from mouse spleens and adhesion assays were performed as previously reported. Briefly, primary naïve lymphocytes (about 70% T-, 30% B-cells) were isolated from peripheral and mesenteric lymph nodes and Peyer's patches from young BALB/c mice (Harlan, Italy). Adhesion assays were performed on eighteen well glass slides coated overnight at 4° C. with purified mouse ICAM-1; site density per square micrometer of immobilized ICAM-1 was calculated as reported.

[4] = test system: lymphocyte rolling and arrest on PP-HEV; test: Intravital video microscopy of lymphocyte-high endothelial venule interaction in Peyer's patches; assay type: in vivo, mouse
Procedure: Intravital video microscopy analysis of lymphocyte-high endothelial venule interaction in Peyer's patches. Lymphocytes (5×10^6/ml in DMEM without sodium bicarbonate supplemented with 20 mM Hepes, 5% FCS, pH7.1) were labeled with either CMFDA or CMTMR for 30 min at 37° C. 30×10^6 labeled cells were injected iv. In situ videomicroscopic analyses were carried out in high endothelial venules (HEV) in the secondary lymphoid organ Peyer's patch (PP) as previously described. Cell behavior was analyzed over a period of 20-30 min starting at 2 minutes after iv injection. Interactions of ≧1 s were considered significant and were scored. Cells were considered to be interacting whether they rolled, arrested or both. Lymphocytes that remained firmly adherent on venular wall for ≧10 s were considered arrested.

LFA-1 lateral mobility = test: LFA-1 distribution on plasma membrane (confocal microscopy); assay type: cell-based, mouse; settings: 1 μM CCL21 2 min
Procedure: Evaluation of LFA-1 distribution on plasma membrane. Analysis and quantification of chemokine-induced LFA-1 surface distribution was determined by confocal microscopy, following the same procedure previously described. Briefly, lymphocytes were stimulated in suspension under stirring and then immediately fixed in 1% ice-cold paraformaldehyde in PBS, pH 7.4, for 10 min. Cell were washed and incubated with 10 μg/ml of TIB213 rat anti-mouse LFA-1 (ATCC) for 30 min on ice, washed 3 times and then incubated 30 min with Texas Red-conjugated goat anti-rat secondary antibody. The washed cells adhered for 30 min at 4° C. on 0.1% poly-L-lysine coated round 13 mm glass coverslips and were analyzed with a Carl Zeiss LSM 510 confocal imaging system, with a 63×C-Apochromat objective (NA 1.2). Definition and quantitative analysis of “disperse” and “clustered” morphologies of LFA-1 distribution was as previously described.

[5] = target: T2, RhoA binding to Citron-RBD (Homo sapiens, UniProt O14578); test: Affinity-precipitation (pull-down) of GTP-Val14-RhoA with Citron GST-RBD; settings: 20 μg of domain, anti-RhoA immunoblot
T2 sequence (O14578 1091-1302 limits assumed): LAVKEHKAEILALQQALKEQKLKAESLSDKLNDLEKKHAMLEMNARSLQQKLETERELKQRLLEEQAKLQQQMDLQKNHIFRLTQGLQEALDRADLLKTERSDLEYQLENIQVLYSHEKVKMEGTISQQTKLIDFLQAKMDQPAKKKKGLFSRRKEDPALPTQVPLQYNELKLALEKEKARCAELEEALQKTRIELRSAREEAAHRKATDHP
Procedure: as §1

[6] = test system: autoreactive, encephalitogenic T lymphocytes in inflamed brain microvessels; test: Intravital microscopy of Ag-stimulated lymphocyte recruitment in inflamed brain microvessels; assay type: in vivo; settings: mouse model simulating human Multiple Sclerosis
Procedure: The RhoA derived peptides described in Example 1 were tested for their ability to inhibit Ag-stimulated lymphocyte (autoreactive, encephalitogenic T lymphocytes) recruitment in inflamed brain by looking in vivo cell behavior with intravital microscopy, as described in Example 1. This in vivo model simulates, in mouse, human Multiple Sclerosis.

[7] = test system: Swiss 3T3 mouse fibroblasts; test: LPA-induced actin stress fibers and membrane ruffling in fibroblasts; assay type: cell-based; settings: 4 hours at 37° C. with peptide, then 10 min 25 ng/ml LPA
Procedure: Evaluation of actin stress fibers content. Swiss 3T3 mouse fibroblasts were maintained in DMEM containing 10% FCS for 6 days and then starved for 12 hours. Actin stress fibers content was evaluated in permeabilized cells with TRITC-labeled phalloidin. Analysis was performed by using a Zeiss LSM confocal microscope.

[8] = test system: LFA-1 high affinity state; test: Measurement of LFA-1 high affinity state (soluble 125I-ICAM-1 binding); assay type: cell-based, mouse; settings: 1 μM CCL21 2 min
Procedure: Measurement of LFA-1 high affinity state. Induction of LFA-1 high affinity state by CCL21 was evaluated by measuring binding of soluble ^125I-ICAM-1. Briefly, ICAM-1 was iodinated with ^125NaI by the Chizzonite method. The binding assay was performed at 37° C. in a 500 μl Eppendorf tube. 40 μl of lymphocyte suspension (5×10^7/ml in PBS containing 1 mg/ml BSA, 2 mM MgCl2, 1 mM CaCl2, 1 mM D-glucose, pH 7.2) were directly layered on […] oil cushion of 2/1 dibutyl/dioctyl phthalates. Lymphocytes were stimulated with 10 μl of PBS containing chemokine (6 μM) and ^125I-ICAM-1 (5×10^5 CPM corresponding approximately to 2 μg of ^125I-ICAM-1). The binding reaction was stopped by rapid centrifugation in microfuge. Radioactivity bound to lymphocytes was counted with a gamma counter.

[9] = pretreated lymphocytes injected iv

| Compound | prevention of the increase of ζ PKC kinase activity induced by CCL21 (ζ PKC) | ζ PKC translocation to the plasma membrane induced by CCL21 [2] | rapid adhesion induced by CCL21 on high density of ICAM-1 [3] | rapid adhesion induced by CCL21 on low density of ICAM-1 [3] | rolling and arrest of circulating lymphocytes on PP-HEV [4, 9] | LFA-1 rapid lateral mobility (generation of LFA-1 clusters) induced by CCL21 (LFA-1 lateral mobility) | LFA-1 high affinity state triggering by CCL21 [8] | other results |
| --- | --- | --- | --- | --- | --- | --- | --- | --- |
| COC[C@H]1OC(=O)c2coc3c2[C@@]1(C)C1=C(C3=O)[C@@H]2CCC(=O)[C@@]2(C)C[C@H]1OC(C)=O [Wortmannin] | about 51% | – | – | – | – | – | – | – |
| O=c1cc(N2CCOCC2)oc2c(-c3ccccc3)cccc12 [LY294002] | ~62% | – | – | – | – | – | – | – |
| P1-RhoA 75-92: Penetratin-1 fused through a glycine to human RhoA aa 75-92 (PDTDVILMCFSIDSPDSL, Domain II); aa 34 | – | did not prevent | ineffective | unable to block | did not affect | did not prevent | – | binding of RhoA to Rhotekin [1]: blocked |
| P1-RhoA 23-40: Penetratin-1 fused through a glycine to human RhoA aa 23-40 (IVFSKDQFPEVYVPTVFE, Domain I); aa 34 | – | blocked | blocked adhesion triggering in a dose-dependent manner | prevented in a dose-dependent manner | – | prevented | – | binding of RhoA to Citron [5]: blocked; blockade of ζ PKC translocation to the plasma membrane, densitometric analysis ([2]; 100 μM): about 82%; percentage of cells displaying only rolling on PP-HEV ([4]; 50 μM pretreatment): increased; inhibition of stable arrest of lymphocytes on PP-HEV ([4]; 50 μM pretreatment, P<0.01): about 75%; lymphocyte tethering and interaction with vessels ([4]; pretreated lymphocytes injected iv, 50 μM): did not influence; recruitment/arrest of Ag-stimulated lymphocytes in inflamed brain microvessels [6]: blocks recruitment |
| P1: Plasma membrane translocating sequence from third helix of Antennapedia homeodomain, RQIKIWFQNRRMKWKK; control peptide [reference compound] | – | did not prevent | ineffective | unable to block | did not affect | did not prevent | did not prevent | accumulation of actin stress fibers upon LPA triggering [7]: completely ineffective |
| C[C@@H](N)[C@H]1CC[C@H](C(=O)Nc2ccncc2)CC1 [Y27632, reference compound] | – | – | did not inhibit | did not inhibit | rolled and adhered normally | neither LFA-1 affinity triggering (FIG. 2H) nor induction of lateral mobility were blocked | neither LFA-1 affinity triggering (FIG. 2H) nor induction of lateral mobility were blocked | – |
